≈ marks a conversion by molar mass, not a printed value. Where a name gives a salt, the structure may show the parent alone. Read-outs that look alike come from different tables or passages of the source.
Key:
[1] = cited from earlier work; for Observed AUC(0-inf) Fasted / Observed AUC(0-inf) Fed / Observed Cmax Fed / Observed Cmax Fasted / Observed AUC Ratios (Fed/Fasted) / Observed Cmax Ratios (Fed/Fasted): ref published clinical data (Table I)
[2] = Solubility measurement in biorelevant media (FaSSIF-V2, FeSSIF-V2); conditions: 37 °C, thermodynamic from solid
Experimental: The solubility of the drug substances was determined in biorelevant media as well as in aqueous buffers at different pH. Fasted state simulated gastric fluid (FaSSGF) ([37]), fasted state simulated intestinal fluid (FaSSIF-V2) ([38]), and fed state simulated intestinal fluid (FeSSIF-V2) ([39]) were prepared according to the instructions provided by Biorelevant (Biorelevant.com Ltd., London, UK). […] For neutral compounds, solubility was determined at pH 2, pH 4, and pH 7.
For freely soluble compounds, the extent of solubilization was measured only up to 10 mg/mL.

[3] = Effective human jejunum permeability (Peff,man) used in the PBPK model; type: in vitro ADME; conditions: human, 1 h
[4] = PBPK food effect modeling (Simcyp V17.1 and/or GastroPlus V9.5; Model 1 / Model 2); set-up: species or system human
[5] = not generated within this working group; ref Table I; cited from earlier work
[6] = set-up: method as in Table I reference column; conditions: not generated within this working group; ref Table I; cited from earlier work
[7] = FaSSIF-V2 (fasted state simulated intestinal fluid), FaSSIF solubility
[8] = FeSSIF-V2 (fed state simulated intestinal fluid), FeSSIF solubility
[9] = clinically observed PK change (AUC, Cmax) fed vs fasted, compiled by literature search
[10] = direction, AUC and/or Cmax ratio fed to fasted, BE criteria 0.8–1.25, ref drug label

CCc1cc2c(cc1N1CCC(N3CCOCC3)CC1)C(C)(C)c1[nH]c3cc(C#N)ccc3c1C2=O [Alectinib]
Observed AUC(0-inf) Fasted ([1]; Model 1): 1790 ng·h/mL
Observed AUC(0-inf) Fed ([1]; Model 1): 5230 ng·h/mL
Observed Cmax Fed ([1]; Model 1): 257 ng/mL
Observed AUC(0-inf) Fasted ([1]; Model 2): 1790 ng·h/mL
Observed AUC(0-inf) Fed ([1]; Model 2): 5230 ng·h/mL
Observed Cmax Fed ([1]; Model 2): 257 ng/mL
solubility [2, 7]: 23 µg/mL (≈ 47.7 µM)
solubility [2, 8]: 77 µg/mL (≈ 160 µM)
pKa (pKa; pKa (b, basic)): 7.05

CCC(C)n1ncn(-c2ccc(N3CCN(c4ccc(OCC5COC(Cn6cncn6)(c6ccc(Cl)cc6Cl)O5)cc4)CC3)cc2)c1=O (centres unmarked) [Itraconazole]
Effective permeability [3]: 990 ×10⁻⁶ cm/s
Observed AUC(0-inf) Fasted ([1]; Model 1): 1880 ng·h/mL
Observed Cmax Fasted ([1]; Model 1): 140 ng/mL
Observed AUC(0-inf) Fed ([1]; Model 1): 3120 ng·h/mL
Observed Cmax Fed ([1]; Model 1): 239 ng/mL
Observed AUC Ratios (Fed/Fasted) ([1]; Model 1): 1.66
Observed Cmax Ratios (Fed/Fasted) ([1]; Model 1): 1.71
Observed AUC(0-inf) Fasted ([1]; Model 2): 1880 ng·h/mL
Observed Cmax Fasted ([1]; Model 2): 140 ng/mL
Observed AUC(0-inf) Fed ([1]; Model 2): 3120 ng·h/mL
Observed Cmax Fed ([1]; Model 2): 239 ng/mL
Observed AUC Ratios (Fed/Fasted) ([1]; Model 2): 1.66
Observed Cmax Ratios (Fed/Fasted) ([1]; Model 2): 1.71
Food Effect [1, 9]: Positive (positive if the ratio of fed > fasted)
Food Effect [1, 10]: Positive (positive if the ratio of fed > fasted)
solubility [2, 7]: 1120 µg/mL (≈ 1590 µM)
solubility [2, 8]: 3620 µg/mL (≈ 5130 µM)
AUC Ratio of Ratios (Sim'd / Obs'd) ([4]; Model 1): 0.82
Cmax Ratio of Ratios (Sim'd / Obs'd) ([4]; Model 1): 1.03
AUC Ratio of Ratios (Sim'd / Obs'd) ([4]; Model 2): 1.00
Cmax Ratio of Ratios (Sim'd / Obs'd) ([4]; Model 2): 1.02
pKa (pKa; pKa (b, basic)): 4.28

Cc1cn([C@H]2C[C@H](N=[N+]=[N-])[C@@H](CO)O2)c(=O)[nH]c1=O [Zidovudine]
Observed AUC(0-inf) Fasted ([1]; Model 1): 2480 ng·h/mL
Observed Cmax Fasted ([1]; Model 1): 1130 ng/mL
Observed AUC(0-inf) Fed ([1]; Model 1): 2170 ng·h/mL
Observed Cmax Fed ([1]; Model 1): 632 ng/mL
Food Effect [1, 9]: Negative (negative if ratio fasted > fed)
food effect (FE) direction ([1]; ref drug label): negative FE
pKa (pKa; pKa (b, basic)): 9.7

Cc1ccc(NC(=O)c2ccc(CN3CCN(C)CC3)cc2)cc1Nc1nccc(-c2cccnc2)n1 [Imatinib]
Effective permeability [3]: 110 ×10⁻⁶ cm/s
Food Effect [1, 10]: None (none if no significant change in AUC and Cmax with food)
pKa (b, basic) (pKa): 8.07
pKa (pKa; pKa (b, basic)): 3.73

CC(C)NC[C@@H](O)c1ccc(NS(C)(=O)=O)cc1 [d-Sotalol]
Solubility at pH 6.5 [5]: 15,800^^ μg/ml
Observed AUC(0-inf) Fasted ([1]; Model 1): 15500 ng·h/mL
Observed Cmax Fasted ([1]; Model 1): 1200 ng/mL
Observed AUC(0-inf) Fed ([1]; Model 1): 12600 ng·h/mL
Food Effect [1, 9]: None (none if no significant change in AUC and Cmax with food)
pKa (b, basic) (pKa): 9.72
pKa (pKa; pKa (a, acidic)): 8.28

O=C1NC(=O)C(c2ccccc2)(c2ccccc2)N1 [Phenytoin]
Effective permeability [3]: 400 ×10⁻⁶ cm/s
Solubility at pH 6.5 [5]: 31^^ μg/ml
Observed AUC(0-inf) Fasted ([1]; Model 1): 104000 ng·h/mL
Observed Cmax Fasted ([1]; Model 1): 4920 ng/mL
Observed AUC(0-inf) Fed ([1]; Model 1): 127000 ng·h/mL
Observed Cmax Fed ([1]; Model 1): 6950 ng/mL
Observed AUC Ratios (Fed/Fasted) ([1]; Model 1): 1.22
Observed Cmax Ratios (Fed/Fasted) ([1]; Model 1): 1.41
Observed AUC(0-inf) Fasted ([1]; Model 2): 104000 ng·h/mL
Observed Cmax Fasted ([1]; Model 2): 4920 ng/mL
Observed AUC(0-inf) Fed ([1]; Model 2): 127000 ng·h/mL
Observed Cmax Fed ([1]; Model 2): 6950 ng/mL
Observed AUC Ratios (Fed/Fasted) ([1]; Model 2): 1.22
Observed Cmax Ratios (Fed/Fasted) ([1]; Model 2): 1.41
Food Effect [1, 9]: Positive (positive if the ratio of fed > fasted)
Food Effect [1, 10]: Positive (positive if the ratio of fed > fasted)
food effect (FE) direction ([1]; ref drug label): positive FE
AUC Ratio of Ratios (Sim'd / Obs'd) ([4]; Model 1): 0.95
Cmax Ratio of Ratios (Sim'd / Obs'd) ([4]; Model 1): 0.92
AUC Ratio of Ratios (Sim'd / Obs'd) ([4]; Model 2): 0.99
Cmax Ratio of Ratios (Sim'd / Obs'd) ([4]; Model 2): 1.00
pKa (pKa; pKa (a, acidic)): 8.06
FaSSIF solubility [6]: 39.6^^ μg/ml
FeSSIF solubility [6]: 49.5^^ μg/ml

CC[C@H]1OC(=O)[C@H](C)[C@@H](O[C@H]2C[C@@](C)(OC)[C@@H](O)[C@H](C)O2)[C@H](C)[C@@H](O[C@@H]2O[C@H](C)C[C@H](N(C)C)[C@H]2O)[C@](C)(OC)C[C@@H](C)C(=O)[C@H](C)[C@@H](O)[C@]1(C)O [Clarithromycin]
Effective permeability [3]: 30 ×10⁻⁶ cm/s
Observed AUC(0-inf) Fasted ([1]; Model 1): 12600 ng·h/mL
Observed Cmax Fasted ([1]; Model 1): 1650 ng/mL
Observed AUC(0-inf) Fed ([1]; Model 1): 15700 ng·h/mL
Observed Cmax Fed ([1]; Model 1): 2510 ng/mL
Observed AUC(0-inf) Fasted ([1]; Model 2): 12600 ng·h/mL
Observed Cmax Fasted ([1]; Model 2): 1650 ng/mL
Observed AUC(0-inf) Fed ([1]; Model 2): 15700 ng·h/mL
Observed Cmax Fed ([1]; Model 2): 2510 ng/mL
Food Effect [1, 9]: Positive (positive if the ratio of fed > fasted)
solubility [2, 7]: 132 µg/mL (≈ 176 µM)
solubility [2, 8]: 1660 µg/mL (≈ 2210 µM)

CCOC(=O)C1=C[C@@H](OC(CC)CC)[C@H](NC(C)=O)[C@@H](N)C1 [Oseltamivir]
Solubility at pH 6.5 [5]: 25,000^^ μg/ml
Observed AUC(0-inf) Fasted ([1]; Model 1): 6220 ng·h/mL
Observed Cmax Fasted ([1]; Model 1): 551 ng/mL
Observed AUC(0-inf) Fed ([1]; Model 1): 6070 ng·h/mL
Observed Cmax Fed ([1]; Model 1): 441 ng/mL
Observed AUC Ratios (Fed/Fasted) ([1]; Model 1): 0.98
Observed Cmax Ratios (Fed/Fasted) ([1]; Model 1): 0.80
Food Effect [1, 10]: None (none if no significant change in AUC and Cmax with food)
AUC Ratio of Ratios (Sim'd / Obs'd) ([4]; Model 1): 1.09
Cmax Ratio of Ratios (Sim'd / Obs'd) ([4]; Model 1): 1.34
pKa (pKa; pKa (b, basic)): 7.7

CNCCC(Oc1ccc(C(F)(F)F)cc1)c1ccccc1 (centres unmarked) [Fluoxetine HCl]
Observed AUC(0-inf) Fasted ([1]; Model 1): 1930 ng·h/mL
Observed Cmax Fasted ([1]; Model 1): 39.3 ng/mL
Observed AUC(0-inf) Fed ([1]; Model 1): 1340 ng·h/mL
Observed Cmax Fed ([1]; Model 1): 35.7 ng/mL
Observed AUC(0-inf) Fasted ([1]; Model 2): 1930 ng·h/mL
Observed Cmax Fasted ([1]; Model 2): 39.3 ng/mL
Observed AUC(0-inf) Fed ([1]; Model 2): 1340 ng·h/mL
Observed Cmax Fed ([1]; Model 2): 35.7 ng/mL
food effect (FE) direction ([1]; ref drug label): no FE
pKa (pKa; pKa (b, basic)): 9.8

COc1cc2nccc(Oc3ccc(NC(=O)C4(C(=O)Nc5ccc(F)cc5)CC4)cc3)c2cc1OC [Cabozantinib]
Food Effect [1, 9]: Positive (positive if the ratio of fed > fasted)

Cc1ccc(O)c([C@H](CCN(C(C)C)C(C)C)c2ccccc2)c1 [Tolterodine tartrate]
Food Effect [1, 9]: None (none if no significant change in AUC and Cmax with food)

C#C[C@]1(O)CC[C@H]2[C@@H]3CCC4=Cc5oncc5C[C@]4(C)[C@H]3CC[C@@]21C [Danazol]
Observed AUC(0-inf) Fasted ([1]; Model 2): 231 ng·h/mL
Observed Cmax Fasted ([1]; Model 2): 37 ng/mL
Observed AUC(0-inf) Fed ([1]; Model 2): 668 ng·h/mL
Observed Cmax Fed ([1]; Model 2): 101 ng/mL

COC(=O)[C@H](c1ccccc1Cl)N1CCc2sccc2C1 [Clopidogrel bisulfate]
Food Effect ([1]; active metabolite measured, fed vs fasted, compiled by literature search): None (none if no significant change in AUC and Cmax with food)
Food Effect ([1]; prodrug measured, fed vs fasted, compiled by literature search): Positive (positive if the ratio of fed > fasted)

CC(C)c1nc(N(C)S(C)(=O)=O)nc(-c2ccc(F)cc2)c1/C=C/[C@@H](O)C[C@@H](O)CC(=O)O [Rosuvastatin]
Food Effect [1, 9]: Negative (negative if ratio fasted > fed)

Cc1c(F)cccc1NC(=O)Nc1ccc(Cl)c(S(=O)(=O)[C@H]2CCCNC2)c1O [Danirixin]
Observed AUC(0-inf) Fasted ([1]; Model 1): 10400 ng·h/mL
Observed Cmax Fasted ([1]; Model 1): 3020 ng/mL
Observed AUC(0-inf) Fed ([1]; Model 1): 6760 ng·h/mL
Observed Cmax Fed ([1]; Model 1): 1300 ng/mL
Observed AUC Ratios (Fed/Fasted) ([1]; Model 1): 0.65
Observed Cmax Ratios (Fed/Fasted) ([1]; Model 1): 0.43
Food Effect [1, 9]: Negative (negative if ratio fasted > fed)
Food Effect [1, 10]: Negative (negative if ratio fasted > fed)
solubility [2, 7]: 459 µg/mL (≈ 1040 µM)
AUC Ratio of Ratios (Sim'd / Obs'd) ([4]; Model 1): 1.51
Cmax Ratio of Ratios (Sim'd / Obs'd) ([4]; Model 1): 1.70
pKa (pKa; pKa (a, acidic)): 4.8
pKa (pKa; pKa (b, basic)): 8.1

CC1(C)O[C@@H]2[C@@H](CO[C@@]3(COS(N)(=O)=O)OC(C)(C)O[C@@H]23)O1 [Topiramate]
Food Effect [1, 9]: None (none if no significant change in AUC and Cmax with food)

CCCCC1=NC2(CCCC2)C(=O)N1Cc1ccc(-c2ccccc2-c2nnn[nH]2)cc1 [Irbesartan]
Food Effect [1, 9]: None (none if no significant change in AUC and Cmax with food)

CN(C)C(=N)N=C(N)N [Metformin]
Food Effect [1, 9]: None (none if no significant change in AUC and Cmax with food)

CCOC(=O)C1=C[C@@H](OC(CC)CC)[C@H](NC(C)=O)[C@@H](N)C1 [Oseltamavir]
Food Effect [1, 9]: None (none if no significant change in AUC and Cmax with food)

CO/N=C(\C(=O)N[C@@H]1C(=O)N2C(C(=O)OCOC(=O)C(C)(C)C)=C(/C=C\c3scnc3C)CS[C@H]12)c1csc(N)n1 [Cefditoren pivoxil]
Food Effect [1, 9]: Positive (positive if the ratio of fed > fasted)

CNCCC(Oc1ccc(C(F)(F)F)cc1)c1ccccc1 (centres unmarked) [Fluoxetine hydrochloride]
Food Effect [1, 9]: None (none if no significant change in AUC and Cmax with food)

From paper PMC7520419 (The AAPS Journal, 2020)
